Assay results published in patent US20230382925A1, “MODULATORS OF CYSTIC FIBROSIS TRANSMEMBRANE CONDUCTANCE REGULATOR” (VERTEX PHARMACEUTICALS INCORPORATED, priority 2020, published 2023).
Where two headings read alike, the source gives them in different places.

Molecular target: CFTR (Homo sapiens, UniProt P13569)
Test: Membrane Potential Dye, Enteroid Assay B
Type: cell-based
Outline: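 Human intestinal enteroid cells exposed to compound 18-24 h at 37 °C, then loaded with methyl oxonol membrane-potential dye plus CaCC blockers. Chloride transport triggered in chloride-free buffer with 10 μM forskolin, 100 μM IBMX, 300 nM Compound III; fluorescence read 15 min, expressed as % of triple-corrector/potentiator combination control.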

[1] = Table 10, read-out: Ent. B EC50

Chain of CFTR (P13569 with tags, fused parts or gaps DEL508-508): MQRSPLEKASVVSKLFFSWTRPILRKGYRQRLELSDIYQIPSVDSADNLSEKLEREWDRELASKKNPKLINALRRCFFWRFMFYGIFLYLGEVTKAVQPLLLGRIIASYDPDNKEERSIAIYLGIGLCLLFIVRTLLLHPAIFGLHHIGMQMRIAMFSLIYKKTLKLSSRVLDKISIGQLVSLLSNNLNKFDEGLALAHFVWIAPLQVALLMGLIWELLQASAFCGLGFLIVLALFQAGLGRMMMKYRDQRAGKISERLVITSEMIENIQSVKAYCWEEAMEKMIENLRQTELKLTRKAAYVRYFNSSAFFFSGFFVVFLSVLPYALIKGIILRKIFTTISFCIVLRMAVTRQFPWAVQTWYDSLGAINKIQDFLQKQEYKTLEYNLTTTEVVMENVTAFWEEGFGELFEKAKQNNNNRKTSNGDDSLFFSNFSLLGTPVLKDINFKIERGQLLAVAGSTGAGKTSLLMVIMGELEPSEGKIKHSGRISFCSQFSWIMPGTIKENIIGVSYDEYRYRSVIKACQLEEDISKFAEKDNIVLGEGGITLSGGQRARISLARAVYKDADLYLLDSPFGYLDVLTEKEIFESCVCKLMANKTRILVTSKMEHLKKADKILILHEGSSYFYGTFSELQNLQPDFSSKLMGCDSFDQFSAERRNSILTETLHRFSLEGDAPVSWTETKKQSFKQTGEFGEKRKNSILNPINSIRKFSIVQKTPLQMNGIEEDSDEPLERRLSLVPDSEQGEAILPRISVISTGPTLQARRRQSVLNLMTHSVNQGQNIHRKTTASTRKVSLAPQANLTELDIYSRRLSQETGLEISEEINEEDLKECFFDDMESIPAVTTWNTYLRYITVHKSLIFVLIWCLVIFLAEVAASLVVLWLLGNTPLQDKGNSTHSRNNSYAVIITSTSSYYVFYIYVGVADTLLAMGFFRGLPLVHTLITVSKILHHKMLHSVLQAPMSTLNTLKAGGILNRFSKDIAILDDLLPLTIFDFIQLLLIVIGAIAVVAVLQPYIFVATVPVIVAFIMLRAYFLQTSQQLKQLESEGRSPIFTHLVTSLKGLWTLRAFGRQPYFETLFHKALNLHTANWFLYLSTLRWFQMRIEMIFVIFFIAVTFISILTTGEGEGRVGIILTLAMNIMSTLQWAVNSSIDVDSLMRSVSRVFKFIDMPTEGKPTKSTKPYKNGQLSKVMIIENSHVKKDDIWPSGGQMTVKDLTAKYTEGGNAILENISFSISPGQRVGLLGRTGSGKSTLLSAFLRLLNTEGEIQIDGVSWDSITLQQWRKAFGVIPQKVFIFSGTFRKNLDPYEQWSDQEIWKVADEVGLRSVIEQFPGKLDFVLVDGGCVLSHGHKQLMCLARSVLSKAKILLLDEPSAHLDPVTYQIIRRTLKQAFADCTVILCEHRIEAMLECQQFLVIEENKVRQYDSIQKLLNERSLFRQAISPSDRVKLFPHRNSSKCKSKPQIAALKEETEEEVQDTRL

SMILES	Ent. B Max Activity (%) (Table 10)	EC50 [1] [µM]	also measured
COCCCN1CCC2(CC1)CC(N1C(=O)c3cccc(c3)S(=O)(=O)Nc3nc(cc(-c4c(C)cccc4C)n3)OC[C@H]1CC(C)(C)C(F)(F)F)C2 [Compound 188, (11R)-6-(2,6-dimethylphenyl)-12-[7-(3-methoxypropyl)-7-azaspiro[3.5]nonan-2-yl]-11-(3,3,3-trifluoro-2,2-dimethylpropyl)-9-oxa-2λ^6-thia-3,5,12,19-tetraazatricyclo[12.3.1.14,8]nonadeca-1(17),4(19),5,7,14(18),15-hexaene-2,2,13-trione]	–	–	Ent. B Max Activity (%) (Table 9): +++ (+++ is >60%); EC50 (Table 9, read-out: Ent. B EC50): < 1 µM
Cc1cccc(C)c1-c1cc2nc(n1)NS(=O)(=O)c1cccc(c1)C(=O)N(C1CC3(CCN(CCOC(C)C)CC3)C1)[C@H](CC(C)(C)C(F)(F)F)CO2 [Compound 189, (11R)-6-(2,6-dimethylphenyl)-12-{7-[2-(propan-2-yloxy)ethyl]-7-azaspiro[3.5]nonan-2-yl}-11-(3,3,3-trifluoro-2,2-dimethylpropyl)-9-oxa-2λ^6-thia-3,5,12,19-tetraazatricyclo[12.3.1.14,8]nonadeca-1(17),4(19),5,7,14(18),15-hexaene-2,2,13-trione]	–	–	Ent. B Max Activity (%) (Table 9): +++ (+++ is >60%); EC50 (Table 9, read-out: Ent. B EC50): < 1 µM
COCCN1CCC2(CC1)CC(N1C(=O)c3cccc(c3)S(=O)(=O)Nc3nc(cc(-c4c(C)cccc4C)n3)OC[C@H]1CC(C)(C)C(F)(F)F)C2 [Compound 190, (11R)-6-(2,6-dimethylphenyl)-12-[7-(2-methoxyethyl)-7-azaspiro[3.5]nonan-2-yl]-11-(3,3,3-trifluoro-2,2-dimethylpropyl)-9-oxa-2λ^6-thia-3,5,12,19-tetraazatricyclo[12.3.1.14,8]nonadeca-1(17),4(19),5,7,14(18),15-hexaene-2,2,13-trione]	–	–	Ent. B Max Activity (%) (Table 9): +++ (+++ is >60%); EC50 (Table 9, read-out: Ent. B EC50): < 1 µM
COC(=O)N1CCC2(CC1)CC(N1C(=O)c3cccc(c3)S(=O)(=O)Nc3nc(cc(-c4c(C)cccc4C)n3)OC[C@H]1CC(C)(C)C(F)(F)F)C2 [Compound 191, Methyl 2-[(11R)-6-(2,6-dimethylphenyl)-2,2,13-trioxo-11-(3,3,3-trifluoro-2,2-dimethylpropyl)-9-oxa-2λ^6-thia-3,5,12,19-tetraazatricyclo[12.3.1.14,8]nonadeca-1(17),4(19),5,7,14(18),15-hexaen-12-yl]-7-azaspiro[3.5]nonane-7-carboxylate]	–	–	Ent. B Max Activity (%) (Table 9): +++ (+++ is >60%); EC50 (Table 9, read-out: Ent. B EC50): < 1 µM
Cc1cccc(C)c1-c1cc2nc(n1)NS(=O)(=O)c1cccc(c1)C(=O)N(C1CCCCC1)[C@H](CC(C)(C)C)CO2 [Compound 208]	+ (+ is <300%)	–	–
Cc1cccc(C)c1-c1cc2nc(n1)NS(=O)(=O)c1cccc(c1)C(=O)N([C@H]1C[C@H](OC(F)(F)C(F)(F)F)C1)[C@H](CC(C)C)CO2 [Compound 211]	+ (+ is <300%)	–	–
Cc1cccc(C)c1-c1cc2nc(n1)NS(=O)(=O)c1cccc(c1)C(=O)N(C1CC3(CCN(CCOC(C)C)CC3)C1)[C@H](CC(C)(C)C)CO2 [Compound 215]	–	–	Ent. B Max Activity (%): +++ (+++ is >60%); EC50 (read-out: Ent. B EC50): < 1 µM
Cc1cccc(C)c1-c1cc2nc(n1)NS(=O)(=O)c1cccc(c1)C(=O)N(C1CC3(CC3)C1)C(CC(C)(C)C(F)(F)F)CO2 (stereo not shown) [Compound 217]	–	–	Ent. B Max Activity (%): +++ (+++ is >60%); EC50 (read-out: Ent. B EC50): < 1 µM
COCCN1CCC(n2cc(N3C(=O)c4cccc(c4)S(=O)(=O)Nc4nc(cc(-c5c(C)cccc5C)n4)OC[C@H]3CC(C)(C)C)cn2)CC1 [Compound 224]	+ (+ is <300%)	–	–
CCC(=O)N1C[C@H]2C[C@@H](C1)[C@H]2N1C(=O)c2cccc(c2)S(=O)(=O)Nc2nc(cc(-c3c(C)cccc3C)n2)OC[C@H]1CC(C)(C)C [Compound 231]	++ (++ is 30-60%)	–	EC50 (read-out: Ent. B EC50, Table 10): < 1 µM
CCC(=O)NC1(C)CC(N2C(=O)c3cccc(c3)S(=O)(=O)Nc3nc(cc(-c4c(C)cccc4C)n3)OCC2CC(C)(C)C)C1 (stereo not shown) [Compound 243]	+++ (+++ is >60%)	< 1	–
Cc1cccc(C)c1-c1cc2nc(n1)NS(=O)(=O)c1cccc(c1)C(=O)N([C@H]1C[C@]3(C[C@H](NC(=O)C(C)C)C3)C1)[C@H](CC1(C(F)(F)F)CC1)CO2 (stereo partly shown) [Compound 246]	+++ (+++ is >60%)	< 1	–
Cc1cccc(C)c1-c1cc2nc(n1)NS(=O)(=O)c1cccc(c1)C(=O)N([C@H]1C[C@@]3(C[C@H](NC(=O)C(C)C)C3)C1)[C@H](CC1(C(F)(F)F)CC1)CO2 (stereo partly shown) [Compound 247]	+++ (+++ is >60%)	< 1	–
CCC(=O)N[C@H]1C[C@@]2(C1)C[C@H](N1C(=O)c3cccc(c3)S(=O)(=O)Nc3nc(cc(-c4c(C)cccc4C)n3)OC[C@H]1CC1(C(F)(F)F)CC1)C2 (stereo partly shown) [Compound 248]	+++ (+++ is >60%)	< 1	–
CCC(=O)N[C@H]1C[C@]2(C1)C[C@H](N1C(=O)c3cccc(c3)S(=O)(=O)Nc3nc(cc(-c4c(C)cccc4C)n3)OC[C@H]1CC1(C(F)(F)F)CC1)C2 (stereo partly shown) [Compound 249]	+++ (+++ is >60%)	< 1	–
[H][C@]1(N2C(=O)c3cccc(c3)S(=O)(=O)Nc3nc(cc(-c4c(C)cccc4C)n3)OC[C@H]2CC(C)C)C[C@@]2(C[C@H](NC(=O)CC)C2)C1 (stereo partly shown) [Compound 250]	–	< 1	–
Cc1cccc(C)c1-c1cc2nc(n1)NS(=O)(=O)c1cccc(c1)C(=O)N(C1CC(N(C)C)C1)[C@H](CC(C)(C)C)CO2 (stereo partly shown) [Compound 253]	++ (++ is 30-60%)	< 1	–
Cc1cccc(C)c1-c1cc2nc(n1)NS(=O)(=O)c1cccc(c1)C(=O)N(C1CC(N(C)C)C1)[C@H](CC(C)(C)C)CO2 (stereo partly shown) [Compound 254]	++ (++ is 30-60%)	< 1	–
Cc1cccc(C)c1-c1cc2nc(n1)NS(=O)(=O)c1cccc(c1)C(=O)N(C1CC3(COC(=O)N3)C1)[C@H](CC(C)C)CO2 (stereo partly shown) [Compound 255]	++ (++ is 30-60%)	< 1	–

Continued, in another order:

Ent. B Max Activity (%) (Table 10)	EC50 [1] [µM]	SMILES	also measured
++ (++ is 30-60%)	< 1	Cc1cccc(C)c1-c1cc2nc(n1)NS(=O)(=O)c1cccc(c1)C(=O)N(C1CC3(CCNC(=O)C3)C1)[C@H](CC(C)C)CO2 (stereo partly shown) [Compound 200]	–
++ (++ is 30-60%)	< 1	Cc1cccc(C)c1-c1cc2nc(n1)NS(=O)(=O)c1cccc(c1)C(=O)N(C1CC3(CCNC(=O)C3)C1)[C@H](CC(C)C)CO2 (stereo partly shown) [Compound 201]	–
++ (++ is 30-60%)	< 1	CC(C)C[C@@H]1COc2cc(-c3c(F)cccc3C(F)(F)F)nc(n2)NS(=O)(=O)c2cccc(c2)C(=O)N1C1CC2(CC2)C1 [Compound 202]	–
+++ (+++ is >60%)	< 1	CC(=O)N1CCC12CC(N1C(=O)c3cccc(c3)S(=O)(=O)Nc3nc(cc(-c4c(C)cccc4C)n3)OC[C@H]1CC(C)(C)C)C2 (stereo partly shown) [Compound 207]	–
++ (++ is 30-60%)	< 1	Cc1cccc(C)c1-c1cc2nc(n1)NS(=O)(=O)c1cccc(c1)C(=O)N([C@H]1C[C@@H](OC(F)(F)C(F)(F)F)C1)[C@H](CC(C)C)CO2 [Compound 210]	–
+++ (+++ is >60%)	< 1	Cc1cccc(C)c1-c1cc2nc(n1)NS(=O)(=O)c1cccc(c1)C(=O)N(C1CS(=O)(=O)C1)[C@H](CC(C)(C)C)CO2 [Compound 222]	–
+ (+ is <300%)	< 1	COC(=O)N1CCC(n2cc(N3C(=O)c4cccc(c4)S(=O)(=O)Nc4nc(cc(-c5c(C)cccc5C)n4)OC[C@H]3CC(C)(C)C)cn2)CC1 [Compound 223]	–
+++ (+++ is >60%)	< 1	COCCn1cc(N2C(=O)c3cccc(c3)S(=O)(=O)Nc3nc(cc(-c4c(C)cccc4C)n3)OC[C@H]2CC(C)(C)C)cn1 [Compound 225]	–
+ (+ is <300%)	< 1	Cc1cccc(C)c1-c1cc2nc(n1)NS(=O)(=O)c1cccc(c1)C(=O)N(c1cnn(C3CCN(Cc4ccccc4)CC3)c1)[C@H](CC(C)(C)C)CO2 [Compound 226]	–
+++ (+++ is >60%)	< 1	Cc1cccc(C)c1-c1cc2nc(n1)NS(=O)(=O)c1cccc(c1)C(=O)N(c1cn(C)nc1C)[C@H](CC(C)(C)C)CO2 [Compound 227]	–
+++ (+++ is >60%)	< 1	Cc1cccc(C)c1-c1cc2nc(n1)NS(=O)(=O)c1cccc(c1)C(=O)N(c1cnn(C(C)C)c1)[C@H](CC(C)(C)C)CO2 [Compound 228]	–
+++ (+++ is >60%)	< 1	Cc1cccc(C)c1-c1cc2nc(n1)NS(=O)(=O)c1cccc(c1)C(=O)N(c1cnn(CC(C)C)c1)[C@H](CC(C)(C)C)CO2 [Compound 229]	–
+++ (+++ is >60%)	< 1	Cc1cccc(C)c1-c1cc2nc(n1)NS(=O)(=O)c1cccc(c1)C(=O)N(c1cnn(C)c1)[C@H](CC(C)(C)C)CO2 [Compound 230]	–
+++ (+++ is >60%)	< 1	Cc1cccc(C)c1-c1cc2nc(n1)NS(=O)(=O)c1cccc(c1)C(=O)N(C1CC3(CC(C(N)=O)C3)C1)[C@H](CC(C)(C)C)CO2 (stereo partly shown) [Compound 232]	–
+++ (+++ is >60%)	< 1	Cc1cccc(C)c1-c1cc2nc(n1)NS(=O)(=O)c1cccc(c1)C(=O)N(C1CC3(CC(C(N)=O)C3)C1)[C@H](CC(C)(C)C)CO2 (stereo partly shown) [Compound 233]	–
+++ (+++ is >60%)	< 1	CNC(=O)C1CC2(C1)CC(N1C(=O)c3cccc(c3)S(=O)(=O)Nc3nc(cc(-c4c(C)cccc4C)n3)OC[C@H]1CC(C)(C)C)C2 (stereo partly shown) [Compound 234]	–
+++ (+++ is >60%)	< 1	CNC(=O)C1CC2(C1)CC(N1C(=O)c3cccc(c3)S(=O)(=O)Nc3nc(cc(-c4c(C)cccc4C)n3)OC[C@H]1CC(C)(C)C)C2 (stereo partly shown) [Compound 235]	–
++ (++ is 30-60%)	< 1	CCC(=O)NC1(C)CC(N2C(=O)c3cccc(c3)S(=O)(=O)Nc3nc(cc(-c4c(C)cccc4C)n3)OC[C@H]2CC(C)(C)C)C1 (stereo partly shown) [Compound 242]	–
